Experiments:
[1] = Solution stability, accelerated stress test; format: physicochemical; conditions: 14 days; for Predicted Shelf Life: 25° C., loss of 10% compound (T90), extrapolated from 75° C., pH 5 0.025 M sodium citrate buffer, HPLC
Method: The solution stability of the example compounds were assessed using an accelerated stress test. The compound was dissolved in pH 5, 0.025 M sodium citrate buffer (5˜15 μg/mL). In duplicate, 2 mL of each solution in a glass vial was heated at 75° C. for 14 days. Samples were analyzed periodically using HPLC and % degradation was calculated for the sample. The predicted shelf life (25° C.) was based on the loss of 10% compound (T90) and the fact that the rate of degradation for a first order reaction decreased 50% for every 10° C. drop in temperature.

[2] = tested on: hypertensive cynomolgus monkeys; conditions: dose 250 μg, cited from earlier work

Row | Compound | Predicted Shelf Life [1] [months] | Percent IOP Reduction ± SEM, 1 hour after dose [2] [%] | Percent IOP Reduction ± SEM, 3 hours after dose [2] [%] | Percent IOP Reduction ± SEM, 6 hours after dose [2] [%] | Stability relative to the parent compound α-methylserotonin (oxidative degradation and ester hydrolysis) ([1]; stress conditions: pH 5 citrate buffer, 75° C.)
1 | CC(N)Cc1c[nH]c2ccc(O)cc12 (stereo not drawn) [α-methylserotonin, 3-(2-aminopropyl)-1H-indol-5-ol] | 2.6 | 14.2 ± 4.39 | 25.8 ± 5.16 | 30.8 ± 7.72 | 
2 | CCC(=O)Oc1ccc2[nH]cc(CC(C)N)c2c1 (stereo not drawn) [Example 1, Propionic acid 3-(2-aminopropyl)1H-indol-5-yl ester] | 1.32 |  |  |  | did not provide an increase in the stability of the parent compound
3 | CC(N)Cc1c[nH]c2ccc(OC(=O)C(C)(C)C)cc12 (stereo not drawn) [Example 3, 2,2-Dimethyl-propionic acid 3-(2-aminopropyl)-1H-indol-5yl ester] | 11.3 |  |  |  | 
4 | NCCc1c[nH]c2ccc(O)cc12 [Serotonin] |  | 13.3 ± 5.31 | 18.0 ± 5.12 | 2.0 ± 7.39 | 
5 | CC(N)Cc1c[nH]c2ccc(OC(=O)C(C)C)cc12 (stereo not drawn) [Example 2, Isobutyric acid 3-(2-aminopropyl)-1H-indol-5yl ester] | 3.36 |  |  |  | 
6 | CC(N)Cc1c[nH]c2ccc(OC(=O)C3CC3)cc12 (stereo not drawn) [Example 4, Cyclopropanecarboxylic acid 3-(2-aminopropyl)-1H-indol-5yl ester] | 5.81 |  |  |  | 
